This is an account of results in ChEMBL document CHEMBL4715882, “Evaluation of pyrrolidine-based analog of jaspine B as potential SphK1 inhibitors against rheumatoid arthritis” (Bioorg Med Chem Lett, 2021).

Assay [1] in a line: Antiinflammatory activity against LPS-induced HFLS-RA cells. It counts as functional, cell-based, Homo sapiens.
For assay [2], the target named is Sphingosine kinase 1 (Homo sapiens, UniProt Q9NYA1). In words: Inhibition of SphK1 (unknown origin).
The target in assay [3] is T1, Sphingosine kinase 2 (Homo sapiens, UniProt Q9NRA0).
T1 sequence (Q9NRA0 whole entry): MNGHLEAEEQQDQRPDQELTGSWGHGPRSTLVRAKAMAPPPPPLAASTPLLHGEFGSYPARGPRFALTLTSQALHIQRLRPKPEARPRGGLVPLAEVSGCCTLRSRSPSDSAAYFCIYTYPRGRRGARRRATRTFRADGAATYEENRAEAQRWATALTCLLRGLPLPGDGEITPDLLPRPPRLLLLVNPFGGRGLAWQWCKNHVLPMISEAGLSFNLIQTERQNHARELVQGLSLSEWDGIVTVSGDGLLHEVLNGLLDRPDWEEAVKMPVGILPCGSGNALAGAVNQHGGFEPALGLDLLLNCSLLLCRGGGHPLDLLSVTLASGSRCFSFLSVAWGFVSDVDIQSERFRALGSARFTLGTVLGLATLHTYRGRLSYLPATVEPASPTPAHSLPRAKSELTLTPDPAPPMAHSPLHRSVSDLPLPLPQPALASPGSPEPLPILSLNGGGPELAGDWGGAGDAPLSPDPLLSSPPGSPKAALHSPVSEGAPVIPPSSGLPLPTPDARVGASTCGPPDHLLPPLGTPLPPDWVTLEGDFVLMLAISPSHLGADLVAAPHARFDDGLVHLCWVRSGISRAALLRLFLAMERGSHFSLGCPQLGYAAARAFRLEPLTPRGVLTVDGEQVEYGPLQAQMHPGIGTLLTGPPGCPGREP
In words: Inhibition of SphK2 (unknown origin).

Assay [4] deals with Rattus norvegicus. In words: Antiarthritic activity in CFA-induced rheumatoid arthritis Wistar rat model assessed as reduction in arthritis index at 3 mg/kg, ig for 28 days. It is filed as functional, organism-based. As to conditions: time 28.0 day.
The test system of assay [5] is Rattus norvegicus. In words: Antiarthritic activity in CFA-induced rheumatoid arthritis Wistar rat model assessed as reduction in foot swelling at 3 mg/kg, ig measured after 21 to 28 days. It counts as functional, organism-based. The following applies: time 21-28 day.
Assay [6] deals with Rattus norvegicus. The assay can be described thus: Antiarthritic activity in CFA-induced rheumatoid arthritis Wistar rat model assessed as increase in weight at 3 mg/kg, ig measured after 14 to 28 days. It is filed as functional, organism-based. The following applies: time 14-28 day.
For assay [7], the system named is Rattus norvegicus. The assay can be described thus: Antiinflammatory activity against CFA-induced rheumatoid arthritis Wistar rat model assessed as decrease in IL-1beta level at 3 mg/kg, ig measured after 28 days. It is filed as functional, organism-based. The following applies: time 28.0 day.
The test system of assay [8] is Rattus norvegicus. The assay can be described thus: Antiinflammatory activity against CFA-induced rheumatoid arthritis Wistar rat model assessed as decrease in TNFalpha level at 3 mg/kg, ig measured after 28 days. As to conditions: time 28.0 day. It counts as functional, organism-based.
The test system of assay [9] is Rattus norvegicus. In words: Antiinflammatory activity against CFA-induced rheumatoid arthritis Wistar rat model assessed as decrease in IL6 level at 3 mg/kg, ig measured after 28 days. It is filed as functional, organism-based. The following applies: time 28.0 day.
The test system of assay [10] is Rattus norvegicus. In words: Antiinflammatory activity against CFA-induced rheumatoid arthritis Wistar rat model assessed as decrease in spleen index at 3 mg/kg, ig measured after 28 days. It counts as functional, organism-based. The following applies: time 28.0 day.
Assay [11] concerns Rattus norvegicus. The assay can be described thus: Antiinflammatory activity against CFA-induced rheumatoid arthritis Wistar rat model assessed as decrease in synovial hyperplasia at 3 mg/kg, ig after 28 days. It counts as functional, organism-based. As to conditions: time 28.0 day.
Assay [12] concerns Rattus norvegicus. In words: Antiinflammatory activity against CFA-induced rheumatoid arthritis Wistar rat model assessed as decrease in cell infiltration at 3 mg/kg, ig after 28 days. It is filed as functional, organism-based. The following applies: time 28.0 day.
Assay [13] has as its system Rattus norvegicus. In words: Antiinflammatory activity against CFA-induced rheumatoid arthritis Wistar rat model assessed as decrease in cartilage damage at 3 mg/kg, ig after 28 days. It is filed as functional, organism-based. As to conditions: time 28.0 day.
Assay [14] deals with Rattus norvegicus. In words: Antiinflammatory activity against CFA-induced rheumatoid arthritis Wistar rat model assessed as decrease in IL-1beta level at 30 mg/kg, ig measured after 28 days. It is filed as functional, organism-based. As to conditions: time 28.0 day.
The test system of assay [15] is HFLS-RA. The assay can be described thus: Antiinflammatory activity against LPS-induced HFLS-RA cells assessed as reduction in IL-1alpha expression. It is filed as functional, cell-based. As to conditions: Homo sapiens, dose 5-20 µM.
The test system of assay [16] is HFLS-RA. The assay can be described thus: Antiinflammatory activity against LPS-induced HFLS-RA cells assessed as reduction in IL-1beta expression. It is filed as functional, cell-based. As to conditions: Homo sapiens, dose 5-20 µM.
The subject of assay [17] is HFLS-RA. The assay can be described thus: Antiinflammatory activity against LPS-induced HFLS-RA cells assessed as reduction in IL-6 expression. It counts as functional, cell-based. As to conditions: Homo sapiens, dose 5-20 µM.
In assay [18] the test system is HFLS-RA. In words: Antiinflammatory activity against LPS-induced HFLS-RA cells assessed as reduction in TNF-alpha expression. As to conditions: Homo sapiens, dose 5-20 µM. It is filed as functional, cell-based.
For assay [19], the system named is Rattus norvegicus. In words: Antiarthritic activity in CFA-induced rheumatoid arthritis Wistar rat model assessed as reduction in arthritis index at 30 mg/kg, ig for 28 days. It counts as functional, organism-based. The following applies: time 28.0 day.
Assay [20] concerns Rattus norvegicus. In words: Antiarthritic activity in CFA-induced rheumatoid arthritis Wistar rat model assessed as reduction in foot swelling at 30 mg/kg, ig measured after 21 to 28 days. It is filed as functional, organism-based. As to conditions: time 21-28 day.
In assay [21] the test system is Rattus norvegicus. The assay can be described thus: Antiarthritic activity in CFA-induced rheumatoid arthritis Wistar rat model assessed as increase in weight at 30 mg/kg, ig measured after 14 to 28 days. It counts as functional, organism-based. The following applies: time 14-28 day.
The subject of assay [22] is Rattus norvegicus. In words: Antiinflammatory activity against CFA-induced rheumatoid arthritis Wistar rat model assessed as decrease in cell infiltration at 30 mg/kg, ig after 28 days. It counts as functional, organism-based. As to conditions: time 28.0 day.
For assay [23], the system named is Rattus norvegicus. In words: Antiinflammatory activity against CFA-induced rheumatoid arthritis Wistar rat model assessed as decrease in TNFalpha level at 30 mg/kg, ig measured after 28 days. It is filed as functional, organism-based. As to conditions: time 28.0 day.
The subject of assay [24] is Rattus norvegicus. In words: Antiinflammatory activity against CFA-induced rheumatoid arthritis Wistar rat model assessed as decrease in IL6 level at 30 mg/kg, ig measured after 28 days. As to conditions: time 28.0 day. It is filed as functional, organism-based.
For assay [25], the system named is Rattus norvegicus. In words: Antiinflammatory activity against CFA-induced rheumatoid arthritis Wistar rat model assessed as decrease in spleen index at 30 mg/kg, ig measured after 28 days. It counts as functional, organism-based. As to conditions: time 28.0 day.
In assay [26] the test system is Rattus norvegicus. The assay can be described thus: Antiinflammatory activity against CFA-induced rheumatoid arthritis Wistar rat model assessed as decrease in paw swelling at 30 mg/kg, ig after 28 days. It counts as functional, organism-based. The following applies: time 28.0 day.
Assay [27] deals with Rattus norvegicus. In words: Antiinflammatory activity against CFA-induced rheumatoid arthritis Wistar rat model assessed as decrease in synovial hyperplasia at 30 mg/kg, ig after 28 days. It counts as functional, organism-based. As to conditions: time 28.0 day.
Assay [28] relates to Rattus norvegicus. The assay can be described thus: Antiinflammatory activity against CFA-induced rheumatoid arthritis Wistar rat model assessed as decrease in cartilage damage at 30 mg/kg, ig after 28 days. The following applies: time 28.0 day. It is filed as functional, organism-based.

The source made the active and inactive calls. The calls are words filed in the database; no cut-off is given here.

Chain of Sphingosine kinase 1 (Q9NYA1 whole entry): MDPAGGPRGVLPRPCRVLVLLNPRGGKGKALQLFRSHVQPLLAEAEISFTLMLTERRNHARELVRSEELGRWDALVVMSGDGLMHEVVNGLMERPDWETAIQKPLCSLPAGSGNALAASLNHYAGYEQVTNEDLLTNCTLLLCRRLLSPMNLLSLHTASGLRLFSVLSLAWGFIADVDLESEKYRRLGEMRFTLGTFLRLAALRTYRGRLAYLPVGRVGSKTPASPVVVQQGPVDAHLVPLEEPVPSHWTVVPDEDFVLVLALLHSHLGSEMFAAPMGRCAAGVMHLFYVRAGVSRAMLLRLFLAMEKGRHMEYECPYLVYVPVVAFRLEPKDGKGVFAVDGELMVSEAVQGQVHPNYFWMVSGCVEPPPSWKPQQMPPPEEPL

The compound `CC(OCCCCCCCCCC[C@H]1NC[C@H](N)[C@@H]1O)c1ccccc1` (some centres not stated) returned an IC50 in assay [1] of 24.8 µM.
`COc1ccc(COCCCCCCCCCC[C@H]2NC[C@H](N)[C@@H]2O)c(OC)c1` yielded an IC50 in [1] of 14.3 µM.
For the compound `N[C@H]1CN[C@H](CCCCCCCCCOCc2ccccc2)[C@H]1O`, in [1], 15.1 µM corresponded to half-maximal inhibition (IC50).
`N[C@H]1CN[C@H](CCCCCCCCCCCOCC2CCCCC2)[C@H]1O`: the 50% inhibitory concentration (IC50) in [1] was 46.3 µM.
With `CCCCCCCCCCCCCC[C@H]1NC[C@H](N)[C@@H]1O` [listing 1 of 3 here], the IC50 in [1] was 8.64 µM; in [2] it was 8.89 µM; in assay [3] it was above 100 µM.
Take `N[C@H]1CN[C@H](CCCCCCCCCCOCC2CCCCC2)[C@H]1O`: the IC50 in assay [1] was found to be 51.2 µM.
`CCCCCCCCCCCCCC[C@H]1NC[C@H](N)[C@@H]1O` [listing 2 of 3 here]: the concentration for half-maximal inhibition (IC50) in assay [1] was 10.7 µM; in assay [2] it was above 100 µM; in [3] it was above 100 µM.
In [1], `CC(OCCCCCCCCCC[C@H]1NC[C@H](N)[C@@H]1O)c1ccc(F)cc1` (some centres not stated) returned a concentration for half-maximal inhibition (IC50) of 18.9 µM.
With `N[C@H]1CN[C@H](CCCCCCCCCCOO)[C@H]1O`, the IC50 in assay [1] is 116 µM.
In assay [1], `N[C@H]1CN[C@H](CCCCCCCCCCOCc2ccc(F)cc2)[C@H]1O` showed a half-inhibitory concentration (IC50) of 10.7 µM.
`N#Cc1ccc(COCCCCCCCCCC[C@H]2NC[C@H](N)[C@@H]2O)cc1` had a half-inhibitory concentration (IC50) in assay [1] of 10.2 µM.
Regarding `Cc1ccc(-c2cc(C(F)(F)F)nn2-c2ccc(S(N)(=O)=O)cc2)cc1`, the outcome in assay [4], in assay [5], in assay [6], in assay [7], in assay [8] and in [9] was Active. Also, the outcome in assay [10], in [11], in assay [12] and in assay [13] was Active.
On to `N[C@H]1CN[C@H](CCCCCCCCCOCC2CCCCC2)[C@H]1O`, for which the concentration for half-maximal inhibition (IC50) in assay [1] is 99.7 µM.
For the compound `Cc1c(F)c(F)c(COCCCCCCCCCC[C@H]2NC[C@H](N)[C@@H]2O)c(F)c1F`, the 50% inhibitory concentration (IC50) in assay [1] was 11.4 µM.
Compound `N[C@H]1CN[C@H](CCCCCCCCCCCOC2CCOCC2)[C@H]1O` registered an IC50 in assay [1] of 11.2 µM.
On the same count and under the same terms, next, `N[C@H]1CN[C@H](CCCCCCCCCCOCc2ccc(C(F)(F)F)cc2)[C@H]1O`: 19.6 µM; `CC(C)COCCCCCCCCCC[C@H]1NC[C@H](N)[C@@H]1O`: 18.1 µM; `CCCCCCCCCCCC[C@H]1NC[C@H](N)[C@@H]1O`: 94.8 µM.
As to `CN(Cc1cnc2nc(N)nc(N)c2n1)c1ccc(C(=O)N[C@@H](CCC(=O)O)C(=O)O)cc1` [METHOTREXATE], the 50% inhibitory concentration (IC50) in assay [1] amounted to 5.48 µM.
Consider `CCCCCCCCCCCCCC[C@H]1NC[C@H](N)[C@@H]1O` [listing 3 of 3 here], for which the outcome in [14], in [19], in assay [20], in [21], in assay [22] and in assay [23] was Active. For the same compound, the outcome in assay [24], in [25], in assay [26], in [27] and in [28] was Active. Moreover, the Activity entry in assay [15], in assay [16], in [17] and in assay [18] was “Dose-dependent effect” throughout.
